Data taken from patent publication US9670213B2, “Pteridine ketone derivative and applications thereof as EGFR, BLK, and FLT3 inhibitor” (EAST CHINA UNIVERSITY OF SCIENCE AND TECHNOLOGY, priority 2012, dated 2017).

Experiments:
[1] = molecular target: EGFR-L858R/T790M (Homo sapiens (Human), UniProt P00533, L858R/T790M); assay: In vitro EGFR kinase activity assay (Z'-Lyte); type: biochemical; conditions: read-out: Inhibitory activity on EGFR kinase (IC50, nM) T790M/L858R;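 further: Cell-free kinase reaction with peptide substrate and ATP, 1.5 h at room temperature, development cleaving unphosphorylated peptide, 10-point dilution 0.051–1000 nM, phosphopeptide as 100% phosphorylation control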
Procedure: Inhibitory effects in vitro of the compounds provided in the present invention on EGFR kinase activity was tested as follows:
10 concentration gradients, from 5.1×10^−11 mol/L to 1.0×10^−6 mol/L, were set for all of the compounds to be tested.
10 μL of kinase reaction system comprised 2.5 μL of compound solution, 5 μL of Kinase/peptide mixture, and 2.5 μL of ATP solution. 5 μL of phosphopeptide solution was used in place of kinase/peptide mixture as 100% phosphorylation control. […] After thoroughly mixing the solution within the plate, the plate was incubated at room temperature for 1.5 hours. 5 μL of DevelopmentSolution was added into each well, and then the plate was incubated at room temperature for another 1 hour, and non-phosphorylated peptide was cleaved within this period. Finally, the reaction was quenched by adding 5 μL of Stop Reagent. The Plate was measured with EnVision Multilabel Reader (Perkin Elmer). Experimental data were calculated by using GraphPad Prism version 4.0. Each experiment was repeated more than three times.

[2] = molecular target: FLT3 (Homo sapiens (Human), UniProt P36888); assay: FLT3 kinase activity assay (Caliper); type: biochemical; conditions: read-out: Inhibitory activity on kinase (IC50, nM) FLT3
[3] = system: H1975 (non-small cell lung cancer cells, EGFR L858R/T790M); assay: Cell proliferation and growth inhibition analysis; type: cell-based; conditions: Homo sapiens, NCI-H1975, 72 hours, read-out: Inhibitory activity on cell proliferation (IC50, μM) H1975
[4] = system: HCC827 (non-small cell lung cancer cells, EGFR del E746-A750); assay: Cell proliferation and growth inhibition analysis; type: cell-based; conditions: Homo sapiens, 72 hours, read-out: Inhibitory activity on cell proliferation (IC50, μM) HCC827
[5] = molecular target: BRAF (Homo sapiens (Human), UniProt P15056); assay: Kinase selectivity analysis (BRAF analysis); type: biochemical; conditions: for inhibition at 1 µM: read-out: % inhibition (1 μM), 1 μM; for inhibition at 10 µM: read-out: % inhibition (10 μM), 10 μM
Procedure: Kinase selectivity analysis: kinase selectivity experiment was performed by Shanghai ChemPartner using Caliper assay screening platform. All of kinases and other materials were purchased from commercial companies.
1. Preparation of 1× Kinase Buffer: 50 mM HEPES, pH 7.5, 10 mM MgCl2, 1 mM EGTA, 0.01% BRIJ-35.
2. Preparation of compounds for BRAF kinase test: 1) serial dilution of compound and preparation of stock solution plate. The compound was diluted in 100% DMSO to a concentration, which was 100 times of the highest concentration used in reaction, and 100 μL of the compound solution as said above was transferred into wells of 96-well plate. 30 μL of compound solution was transferred into 60 μL of 100% DMSO in the adjacent well, and the above operation was repeated for sequentially diluting the compound. 100 μL of 100% DMSO was added into two blank wells as no-compound and no-enzyme control, the plate was marked as stock solution plate. 2) Preparation of temporary plate. 4 μL of compound solution from the stock solution plate was transferred to another 96-well plate, 96 μL of 1× kinase buffer was added into each well, and the temporary plate was placed on a shaker and shaken for 10 mins for uniformly mixing the compound. 3) Preparation of assay plate. 2.5 μL of solution from each well of the 96-well temporary plate was added into a 384-well plate, and the experiment was independently repeated.
3. Kinase BRAF reaction: 1) Preparation of 2× kinase solution. BRAF solution was prepared in 1× kinase buffer, the concentration of which was 2 times of the final concentration in the test. 5 μL of kinase solution was added into each well of the assay plate (except for control well, into which 5 μL of 1× kinase buffer was added), and the assay plate was shaken. 2) Preparation of 4× substrate solution. Fluorescein-MAP2K1, ATP substrate solution was prepared in 1× kinase buffer, the concentration of which was 4 times of the final concentration in the test. 2.5 μL of substrate solution was added into each well of the assay plate to start the reaction, and the assay plate was shaken. 3) The kinase reaction was conducted by incubating at room temperature for 1 hour.
4. Kinase assay. Test solution was prepared in antibody dilution buffer, the concentration of which was 2 times of the following final concentration: antibody 2 nM, EDTA […]. 10 μL of test solution was added into each well of the assay plate to quench the assay. […]
5. Read data: the data was read on Envision (excitation at 340 nm, emission at 520 nm, […]).
6. […] The rate of RFU […] was calculated and converted into inhibition rate % Inhibition rate %=(maximum−rate of sample)/(maximum−minimum)*100, wherein “maximum” represents DMSO control rate, and “minimum” represents the no-enzyme control rate. […]

Sequence of BRAF (P15056 whole entry, species assumed): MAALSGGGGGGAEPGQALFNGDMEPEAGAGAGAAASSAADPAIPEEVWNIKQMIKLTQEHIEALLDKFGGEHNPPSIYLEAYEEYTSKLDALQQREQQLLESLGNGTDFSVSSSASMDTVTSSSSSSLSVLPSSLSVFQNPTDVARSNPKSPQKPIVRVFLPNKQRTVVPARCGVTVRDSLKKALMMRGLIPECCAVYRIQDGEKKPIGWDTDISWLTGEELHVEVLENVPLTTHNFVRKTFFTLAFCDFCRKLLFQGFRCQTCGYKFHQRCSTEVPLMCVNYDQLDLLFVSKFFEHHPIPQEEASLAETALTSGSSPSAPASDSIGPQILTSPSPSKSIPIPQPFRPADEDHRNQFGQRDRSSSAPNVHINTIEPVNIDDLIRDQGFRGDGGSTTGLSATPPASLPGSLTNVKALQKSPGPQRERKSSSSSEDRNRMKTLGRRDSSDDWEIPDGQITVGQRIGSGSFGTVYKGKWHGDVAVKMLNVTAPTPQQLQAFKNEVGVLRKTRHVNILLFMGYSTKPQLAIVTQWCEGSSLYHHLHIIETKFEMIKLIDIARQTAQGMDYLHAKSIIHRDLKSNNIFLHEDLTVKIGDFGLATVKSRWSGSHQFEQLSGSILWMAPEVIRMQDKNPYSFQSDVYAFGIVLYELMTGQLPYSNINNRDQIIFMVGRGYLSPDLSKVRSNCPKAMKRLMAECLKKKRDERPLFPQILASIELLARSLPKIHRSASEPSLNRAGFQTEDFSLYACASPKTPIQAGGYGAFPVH
Sequence of FLT3 (P36888 27-993): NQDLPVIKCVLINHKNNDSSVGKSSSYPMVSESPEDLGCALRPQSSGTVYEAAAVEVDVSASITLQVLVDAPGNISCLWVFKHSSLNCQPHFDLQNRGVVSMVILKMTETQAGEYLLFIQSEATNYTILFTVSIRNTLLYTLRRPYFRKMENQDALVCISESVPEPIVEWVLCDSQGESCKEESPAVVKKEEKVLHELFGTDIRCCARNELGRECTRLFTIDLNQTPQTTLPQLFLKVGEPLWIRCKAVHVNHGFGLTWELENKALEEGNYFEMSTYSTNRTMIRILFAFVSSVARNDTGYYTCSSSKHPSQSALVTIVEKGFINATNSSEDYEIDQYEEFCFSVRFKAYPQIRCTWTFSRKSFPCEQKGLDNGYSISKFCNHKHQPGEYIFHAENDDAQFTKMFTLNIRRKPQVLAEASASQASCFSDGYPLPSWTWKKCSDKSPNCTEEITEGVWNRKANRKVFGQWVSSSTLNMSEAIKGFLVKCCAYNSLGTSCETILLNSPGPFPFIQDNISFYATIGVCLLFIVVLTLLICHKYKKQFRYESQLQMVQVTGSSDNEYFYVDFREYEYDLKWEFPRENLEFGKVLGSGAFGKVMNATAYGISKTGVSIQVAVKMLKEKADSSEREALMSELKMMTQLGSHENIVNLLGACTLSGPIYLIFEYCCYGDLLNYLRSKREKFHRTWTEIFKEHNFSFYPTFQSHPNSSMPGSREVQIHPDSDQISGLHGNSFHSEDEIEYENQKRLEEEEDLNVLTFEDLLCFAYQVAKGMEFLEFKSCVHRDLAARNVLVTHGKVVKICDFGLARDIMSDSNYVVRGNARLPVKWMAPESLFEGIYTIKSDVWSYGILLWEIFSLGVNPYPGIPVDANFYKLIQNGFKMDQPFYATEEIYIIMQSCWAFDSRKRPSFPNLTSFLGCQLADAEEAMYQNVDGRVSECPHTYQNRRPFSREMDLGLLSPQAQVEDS
Sequence of EGFR-L858R/T790M (P00533 25-1210 T790M/L858R): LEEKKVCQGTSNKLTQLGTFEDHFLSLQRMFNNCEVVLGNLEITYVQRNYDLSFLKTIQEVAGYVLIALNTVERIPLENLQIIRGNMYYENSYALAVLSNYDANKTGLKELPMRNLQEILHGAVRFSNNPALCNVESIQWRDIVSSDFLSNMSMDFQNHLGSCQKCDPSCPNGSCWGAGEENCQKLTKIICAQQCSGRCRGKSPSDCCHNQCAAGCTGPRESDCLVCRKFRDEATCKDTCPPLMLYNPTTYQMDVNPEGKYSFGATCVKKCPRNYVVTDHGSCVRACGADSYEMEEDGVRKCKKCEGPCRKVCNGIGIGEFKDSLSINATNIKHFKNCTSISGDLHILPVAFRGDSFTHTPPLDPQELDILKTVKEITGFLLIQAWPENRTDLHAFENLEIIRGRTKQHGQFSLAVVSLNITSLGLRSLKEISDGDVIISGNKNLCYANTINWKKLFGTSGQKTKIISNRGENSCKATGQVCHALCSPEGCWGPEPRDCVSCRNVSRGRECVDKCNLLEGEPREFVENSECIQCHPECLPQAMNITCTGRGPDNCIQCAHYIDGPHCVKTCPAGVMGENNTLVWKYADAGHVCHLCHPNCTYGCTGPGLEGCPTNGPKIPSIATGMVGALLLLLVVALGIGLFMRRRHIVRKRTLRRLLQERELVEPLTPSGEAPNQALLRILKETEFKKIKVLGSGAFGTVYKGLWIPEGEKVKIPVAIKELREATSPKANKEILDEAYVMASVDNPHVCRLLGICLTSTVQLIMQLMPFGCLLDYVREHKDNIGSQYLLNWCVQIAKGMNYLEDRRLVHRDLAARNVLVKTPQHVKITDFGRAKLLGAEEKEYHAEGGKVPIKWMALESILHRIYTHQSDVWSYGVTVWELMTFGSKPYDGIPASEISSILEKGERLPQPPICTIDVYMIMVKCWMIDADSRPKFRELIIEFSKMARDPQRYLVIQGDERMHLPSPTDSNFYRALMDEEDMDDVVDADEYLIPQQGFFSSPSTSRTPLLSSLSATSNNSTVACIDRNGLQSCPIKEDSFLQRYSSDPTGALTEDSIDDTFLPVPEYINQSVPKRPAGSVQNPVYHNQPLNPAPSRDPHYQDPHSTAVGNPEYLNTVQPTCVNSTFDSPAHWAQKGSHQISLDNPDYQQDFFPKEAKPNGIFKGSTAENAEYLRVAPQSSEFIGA

SMILES: C=CC(=O)Nc1cccc(-n2c(=O)cnc3cnc(Nc4ccc(N5CCN(C)CC5)cc4)nc32)c1 [Compound 020, N-(3-(2-(4-(4-methyl-1-piperazinyl)-phenylamino)-7-oxo-8(7H)-pteridin-yl)phenyl) acrylamide]
- IC50 [1]: 0.824 nM
- IC50 [2]: 322 nM
- IC50 [3]: 0.043 µM
- IC50 [4]: 0.002 µM
- inhibition at 1 µM [5]: -7%
- inhibition at 10 µM [5]: 21%

SMILES: C=CC(=O)Nc1cccc(-n2c(=O)cnc3cnc(Nc4ccc(N5CCN(C)CC5)cc4OC)nc32)c1 [Compound 032, N-(3-(2-(2-methoxy-4-(4-methyl-1-piperazinyl)-phenylamino)-7-oxo-8(7H)-pteridin-yl)phenyl)acrylamide]
- IC50 [1]: 1.17 nM
- IC50 [2]: 1170 nM
- IC50 [3]: 0.038 µM
- IC50 [4]: 0.004 µM
- inhibition at 1 µM [5]: 0.35%
- inhibition at 10 µM [5]: -5.2%
